Test results reported in ChEMBL document CHEMBL1141430, “Alkaloids with human delta-opioid receptor binding affinity from the Australian rainforest tree Peripentadenia mearsii” (J Nat Prod, 2007).
Activity calls are given as the source filed them. The calls are words filed in the database; no cut-off is given here.

Experiments:
[1] = target: T1, Delta-type opioid receptor (Homo sapiens, UniProt P41143); assay: Displacement of [125I]deltorphin 2 from human recombinant delta opioid receptor expressed in HEK cells at 100 uM; format: cell-based; details: HEK293
[2] = target: T1, Delta-type opioid receptor; assay: biochemical

T1 sequence (P41143 whole entry): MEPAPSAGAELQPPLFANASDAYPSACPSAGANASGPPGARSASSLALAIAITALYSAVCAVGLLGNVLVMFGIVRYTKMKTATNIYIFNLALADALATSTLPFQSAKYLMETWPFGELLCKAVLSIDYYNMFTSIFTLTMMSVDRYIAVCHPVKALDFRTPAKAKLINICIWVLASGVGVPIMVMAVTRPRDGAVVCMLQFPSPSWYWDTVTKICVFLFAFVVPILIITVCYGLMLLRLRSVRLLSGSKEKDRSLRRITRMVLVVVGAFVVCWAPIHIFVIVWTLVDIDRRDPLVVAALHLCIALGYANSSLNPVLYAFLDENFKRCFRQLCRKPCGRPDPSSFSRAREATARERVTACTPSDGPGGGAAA

| Activity [1] | IC50 [2] | SMILES |
| --- | --- | --- |
| inactive |  | CCCCCC(=O)NCCC[N+]12CCC[C@@H]1CC1=C(C(=O)CC(C)O1)[C@H]2C (stereo partly drawn) |
|  | 11.4 µM | CCCCCC(=O)NCCCN1CCCC1CC(=O)c1c(C)cccc1O (stereo not drawn) [PERIPENTADENINE] |
|  | 30.9 µM | CCCCCC(=O)NCCCN1CCC[C@H]1CC(=O)O [PERIPENTONINE C] |
